{"source": "patent US9433663B2", "about": "“Mobilization of hematopoietic stem cells” (Children's Hospital Medical Center, priority 2008, dated 2016)", "key": {"C57Bl/6 mice": {"test_system": "C57Bl/6 mice", "assay": "mobilization of colony-forming progenitors to peripheral blood, CFU-C assay", "assay_type": "in vivo", "conditions": "C57Bl/6 mice, FIG. 8b", "method": "Whether CASIN administration can induce mobilization of HSC/Ps to peripheral blood of C57Bl/6 mice, mimicking the phenotype observed in Cdc42 conditional knockout mice, was evaluated. First of all, mobilization of hematopoietic progenitor cells was examined by CFU-C assays functionally (FIG. 3a). […] Secondarily, to further explore the ability of CASIN to mobilize LT-HSC which is crucial for long-term repopulation of the mobilized cells, serial transplantations were carried out, where 20 million PB from CASIN-mobilized C57Bl/6 mice was transplanted into primary recipient of NOD/SCID mice, and subsequent secondary and tertiary transplants were finished as well using prior BMs (FIG. 3c). Donor chimerisms were assessed by using H2K^b congenic marker which is positive for donors of C57Bl/6 strain and negative for recipients of NOD/SCID strain. […] Therefore, the studies show CASIN can efficiently mobilize colony-forming hematopoietic progenitors and LT-HSCs with self-renewal and multi-lineage differentiation capacity. Thirdly, to further investigate the potential of CASIN to vacate the BM niche after mobilization, six-color staining of the BM cells was performed from C57Bl/6 mice with or without CASIN treatment followed by FACS analysis. […] Therefore, a transient decrease in BM and a concomitant increase in peripheral organs of HSCs would be beneficial to facilitating the subsequent HSC transplantation.\nTo determinate the hematopoietic progenitor content in the PB of mobilized C57Bl/6 mice, colony-forming unit assay was performed as described previously. Briefly, 200 ul PB was plated in triplicate into methylcellulose (MethocultM3434; StemCell Technology, Vancouver, BC, Canada). Colonies were then counted 7 d later."}, "donor cell engraftment": {"test_system": "donor cell engraftment", "assay": "Example 9 mobilization as preparative regimen for HSC transplantation", "assay_type": "in vivo, mice", "conditions": "compared to the non-mobilization control", "method": "If the microenvironmental niches are vacated after CASIN exposure, donor HSCs might engraft better in hosts treated with a mobilizing agent such as CASIN compared with non-mobilized controls. To test this, bone marrow transplantation is performed on recipient mice which are pre-conditioned with CASIN. […] Additionally, AMD3100, G-CSF, and control medium are used in parallel with CASIN as controls.\nBriefly, mice are treated with CASIN, and 4×10^7 donor bone marrow cells from congenic mouse strain are transplanted 48 h later. Donor cell engraftment is assayed at 3 months using the congenic markers by flow cytometry.\nAdditionally, multiple cycles of mobilization with CASIN may increase the number of available niches. Therefore, this study investigates whether repeated cycles of CASIN mobilization, each followed by donor cell transplantation, could result in increased engraftment. Briefly, mice receive one weekly injection of CASIN on 3 consecutive weeks and 4×10^7 donor marrow cells are transplanted 48 hours after each mobilization. Control animals also received 3 weekly infusions of 4×10^7 donor marrow cells but no CASIN. And the donor engraftment is assayed at 3 months after transplantation as well."}, "Fancc−/− mice [1]": {"test_system": "Fancc−/− mice", "assay": "Example 10 preparative regimen for BM transplantation in Fancc−/− mice", "assay_type": "in vivo", "conditions": "preconditioning before BM transplantation", "method": "Four preparative regimens before BM transplantation on Fancc−/− mice are used to evaluate the capacity of CASIN as a preconditioning agent: (1) Control group; (2) CY group: a single dose of 40 mg/kg CY intraperitoneally; (3) CASIN group: 2.5 mg/Kg; (4) combination of CASIN and CY: one injection of CASIN is given in combination with reduced doses of CY.\nFancc−/− mice are preconditioned with each of these four regimens, and 4×10^7 BM cells from congenic strain mice are transplanted into preconditioned mice by tail vein injection. Mice that underwent transplantation are bled every four weeks to monitor the chimerism of donor-derived cells in PB. And at 3 m, the mice are sacrificed to evaluate the engraftment of donor-derived cells in BM."}, "Fancc−/− mice [2]": {"test_system": "Fancc−/− mice", "assay": "Example 10 HSC/P mobilization in Fancc−/− mice", "conditions": "mouse, in vivo", "method": "The effects of CASIN on HSC/P mobilization in Fancc−/− mice are investigated under four groups in parallel with WT mice: (1) Control group; (2) G-CSF group: 2.5 μg G-CSF per mouse, twice a day for 4 d120; (3) CASIN group: 2.5 mg/Kg; (4) combination of CASIN and G-CSF: one injection of CASIN is given 40 h before the end of 4 d G-CSF administration.\nFancc−/− or WT mice are mobilized with regimens corresponding to the four experimental groups. Then PB are harvested by cardiac puncture. Phenotypically, the absolute number and percentage of HSC/Ps in PB after mobilization are determined as those of LSK (Lin− Sca+ c-Kit+) cells by flow cytometry. Functionally, CFU-C assay is performed in triplicate for each mouse by using PB of mice from different experimental groups, and CFU-GM, CFU-GEMM, BFU-E, and CFU-E are distinguished by morphology and using cytokine combinations. Furthermore, the long-term repopulation capacity of the mobilized HSCs is evaluated using a competitive repopulating assay and subsequent secondary transplantation as discussed above."}}, "data": [{"molecule": "c1cc(CN2CCCNCCNCCCNCC2)ccc1CN1CCCNCCNCCCNCC1", "note": "[AMD3100, reference compound]", "values": [{"measurement": "mobilization of colony-forming progenitors", "setting": "C57Bl/6 mice", "value": "can mobilize colony-forming progenitors"}, {"measurement": "engraftment of donor cells in pre-conditioned recipients", "setting": "donor cell engraftment", "value": "significantly increased engraftment of donor cells"}]}, {"molecule": "O=P1(N(CCCl)CCCl)NCCCO1", "note": "(stereo not drawn) [CY, reference compound]", "values": [{"measurement": "repopulation and engraftment of donor derived cells in PB and BM of Fancc−/− recipient mice", "setting": "Fancc−/− mice [1]", "value": "comparable engraftment and repopulation"}]}, {"molecule": "G-CSF: growth factor, currently available HSPC mobilization agent (protein, UniProt P09919 31-207, looked up) Granulocyte …: TPLGPASSLPQSFLLKCLEQVRKIQGDGAALQEKLVSECATYKLCHPEELVLLGHSLGIPWAPLSSCPSQALQLAGCLSQLHSGLFLYQGLLQALEGISPELGPTLDTLQLDVADFATTIWQQMEELGMAPALQPTQGAMPAFASAFQRRAGGVLVASHLQSFLEVSYRVLRHLAQP", "values": [{"measurement": "mobilization of colony-forming progenitors", "setting": "C57Bl/6 mice", "value": "can mobilize colony-forming progenitors"}, {"measurement": "engraftment of donor cells in pre-conditioned recipients", "setting": "donor cell engraftment", "value": "significantly increased engraftment of donor cells"}, {"measurement": "mobilization of HSC/Ps (LSK cells, progenitor colonies) in Fancc−/− mice", "setting": "Fancc−/− mice [2]", "value": "less effective mobilizer of HSC/Ps in Fancc−/− mice than in WT mice"}]}]}
